US20240158373A1, “RING-MODIFIED PROLINE SHORT PEPTIDE COMPOUND AND USE THEREOF” (FUJIAN AKEYLINK BIOTECHNOLOGY CO., LTD., priority 2021, published 2024)
Like-named read-outs stand apart in the source and are kept apart here.

Experiments:
SARS-CoV-2 Mpro = biological target: T1, SARS-CoV-2 Mpro (Severe acute respiratory syndrome coronavirus 2, UniProt P0DTD1); assay: In vitro anti-novel coronavirus Mpro protease activity (fluorogenic substrate); format: biochemical; details: 25 nM Mpro, 25 μM substrate, 30 min pre-incubation
T1 construct: SARS-CoV-2 Mpro; purchased WuXi AppTec
Protocol: The compound was dissolved in DMSO, and diluted in a 3-fold gradient with Echo655 according to the concentration requirements to 10 concentration points, and duplicate tests were set at each concentration, and the diluted solution was added to a 384-well plate. Mpro protein and substrate were diluted with test buffer (100 mM NaCl, 20 mM Tris-HCl, 1 mM EDTA), and Mpro protein was added to the 384-well test plate, incubated with the compound for 30 min at room temperature, and then the substrate was added thereto, and the test concentration of Mpro protein was 25 nM, and the test concentration of substrate was 25 μM. After incubating for 60 minutes in a 30° C. constant temperature incubator, the fluorescence signal value of Ex/Em=340 nm/490 nm was detected by microplate reader. At the same time, the background well containing the substrate and compound but not containing Mpro protein was detected as control.
1) The inhibition rate was calculated using the following formula:
Inhibition rate %=[(compound-BGcompound)−(ZPE-BGZPE)]/[(HPE-BGHPE)−(ZPE-BGZPE)]*100%
ZPE: No-inhibition control, containing 25 nM Mpro protein+25 μM substrate, not containing compound
Compound: Test compound well, containing 25 nM Mpro protein+25 μM substrate+compound
BG: Background control well, containing 25 μM substrate+compound, not containing Mpro protein
2) Log (agonist) vs. response—variable slope nonlinear fitting analysis was carried out on the inhibition rate data (inhibition rate %) of the compound by using GraphPad Prism software, and the IC50 value of the compound was obtained.

[1] = Pharmacokinetics test of mice; format: in vivo, C57BL/6J male mice; details: mouse, plasma
Protocol: In this study, C57BL/6J male mice were selected as test animals, and LC/MS/MS method was used to quantitatively measure the plasma concentration of the test compound 11 at different time points after oral administration and injection in mice, so as to evaluate the pharmacokinetic characteristics of the test drug in mice.
The test compound dissolved in 30% PEG400+70% normal saline was administered to mice (overnight fasting, 6-8 weeks old) by intragastric administration. 25 μL of blood was collected at 0.083, 0.25, 0.5, 1, 2, 4, 8, 12 and 24 hours after administration, respectively, and placed in commercial anticoagulation tubes pre-added with EDTA-K2, centrifuged at 4° C., 3200 g for 10 min to obtain plasma, and after the plasma sample was treated, the plasma concentration was determined by LC-MS/MS method.

[2] = Pharmacokinetic test in combination with Ritonavir in mice; format: in vivo, C57BL/6J male mice; details: mouse, plasma, po, 10 mg/kg, p.o. 10 mpk
Protocol: In this study, C57BL/6J male mice were selected as test animals, and the LC/MS/MS method was used to quantitatively measure the plasma concentrations of mice in combination with Ritonavir at different time points, so as to evaluate the pharmacokinetic characteristics of the test drug in mice.
Firstly, 10 mpk of Ritonavir was administered to mice by intragastric administration at −12 h and 0 h, and then the test compound was dissolved in 30% PEG400+70% normal saline solution and administered to mice by intragastric administration (overnight fasting, 6 to 8 weeks old). 25 μL of blood was collected at 0.083, 0.25, 0.5, 1, 2, 4, 8, 12 and 24 hours after administration to animals, placed in a commercial anticoagulant tube pre-added with EDTA-K2, and centrifuged at 4° C., 3200 g for 10 min to obtain plasma. After the plasma samples were treated, the plasma concentration was determined by LC-MS/MS method.

[3] = Tissue distribution test in rats (after Ritonavir); format: in vivo, SD male rats; details: rat, po, 30 mg/kg, with Ritonavir
Protocol: In this study, SD male rats were selected as test animals, and the drug concentrations of test compounds in plasma and lungs of rats at different time points were quantitatively measured by LC/MS/MS method to evaluate the pharmacokinetic characteristics of test drugs in rats.
Firstly, 10 mpk of Ritonavir was administered to rats by intragastric administration at −12 h and 0 h, and 30 mpk of the test compound was dissolved in 10% Solutol+30% PEG 400+2% Tween 80+H2O 58% solution and administered to rats by intragastric administration (overnight fasting). 40 μL of blood was collected from the saphenous vein of rats at 0.25, 1 and 6 hours after administration, placed in an anticoagulant tube added with EDTA-K2, centrifuged at 4° C., 3200 g for 10 min to obtain plasma, and some animals were killed at 0.25, 1 and 6 hours respectively to collect lung tissue. After the plasma samples were treated, the plasma concentration was determined by LC-MS/MS method.

CC(C)(C)[C@H](NC(=O)C(F)(F)F)C(=O)N1C[C@@H]2C3C=CC(C3)[C@@H]2[C@H]1C(=O)N[C@H](C#N)C[C@@H]1CCNC1=O (single isomer, unassigned) [Compound 28A]
IC50 (SARS-CoV-2 Mpro): 0.0026 µM

CC(C)(C)[C@H](NC(=O)C(F)(F)F)C(=O)N1C[C@@H]2C3C=CC(C3)[C@@H]2[C@H]1C(=O)N[C@H](C#N)C[C@@H]1CCNC1=O (single isomer, unassigned) [Compound 28]
IC50 (SARS-CoV-2 Mpro): 0.031 µM

CC(C)(C)[C@H](NC(=O)C(F)(F)F)C(=O)N1C[C@@H]2C3CCC(C3)[C@@H]2[C@H]1C(=O)N[C@H](C#N)C[C@@H]1CCNC1=O (single isomer, unassigned) [Compound 29-1]
IC50 (SARS-CoV-2 Mpro): 0.264 µM

CC(C)(C)[C@H](NC(=O)C(F)(F)F)C(=O)N1C[C@@H]2C3CCC(C3)[C@@H]2[C@H]1C(=O)N[C@H](C#N)C[C@@H]1CCNC1=O (single isomer, unassigned) [Compound 29-2]
IC50 (SARS-CoV-2 Mpro): 0.011 µM

N#C[C@H](C[C@@H]1CCNC1=O)NC(=O)[C@@H]1[C@H]2CC[C@H](C2)N1C(=O)[C@@H](NC(=O)C(F)(F)F)C12CC3CC(CC(F)(C3)C1)C2 [Compound 9]
IC50 (SARS-CoV-2 Mpro): 0.025 µM

CC(C)(C)[C@H](NC(=O)C(F)(F)F)C(=O)N1[C@H]2C[C@@H]([C@H]1C(=O)N[C@H](C#N)C[C@@H]1CCNC1=O)C1(CC1)C2 [Compound 11]
AUC(0-t) ([1]; iv, 3 mg/kg, i.v. 3 mpk): 1.45 µM·h
clearance ([1]; iv, 3 mg/kg, i.v. 3 mpk): 4.11 L/h/kg
half-life ([1]; iv, 3 mg/kg, i.v. 3 mpk): 12 min
Vd ([1]; iv, 3 mg/kg, i.v. 3 mpk, read-out: Vdss): 0.9 L/kg
AUC(0-t) ([1]; po, 10 mg/kg, p.o. 10 mpk): 1.52 µM·h
Tmax ([1]; po, 10 mg/kg, p.o. 10 mpk): 15 min
Cmax ([1]; po, 10 mg/kg, p.o. 10 mpk): 1.85 µM
AUC(0-t) ([2]; with Ritonavir 10 mpk): 28.7 µM·h
Tmax ([2]; with Ritonavir 10 mpk): 30 min
Cmax ([2]; with Ritonavir 10 mpk at −12 h and 0 h): 10.1 µM
Kp at 0.25 h ([3]; lung, 0.25 h, given as x/1, read-out: Lung/plasma ratio at 0.25 h): 5.5
Kp at 1 h ([3]; lung, 1 h, given as x/1, read-out: Lung/plasma ratio at 1 h): 3.2
Kp at 6 h ([3]; lung, 6 h, given as x/1, read-out: Lung/plasma ratio at 6 h): 1.6
Kp at 6 h ([3]; lung, given as x/1, read-out: Lung/plasma ratio of AUC(0-6 h)): 2.6
concentration at 0.25 h ([3]; 30 mpk intragastric, lung, 0.25 h, read-out: Lung concentration at 0.25 h): 15.8 µM
concentration at 1 h ([3]; 30 mpk intragastric, lung, 1 h, read-out: Lung concentration at 1 h): 18.4 µM
concentration at 6 h ([3]; 30 mpk intragastric, lung, 6 h, read-out: Lung concentration at 6 h): 7.85 µM
AUC at 6 h ([3]; 30 mpk intragastric, lung, read-out: Lung AUC(0-6 h)): 76.8 µM·h
AUC(0-t) at 6 h ([3]; 30 mpk intragastric, plasma): 29.4 µM·h
concentration at 0.25 h ([3]; 30 mpk intragastric, plasma, 0.25 h, read-out: Plasma concentration at 0.25 h): 2.86 µM
concentration at 1 h ([3]; 30 mpk intragastric, plasma, 1 h, read-out: Plasma concentration at 1 h): 5.49 µM
concentration at 6 h ([3]; 30 mpk intragastric, plasma, 6 h, read-out: Plasma concentration at 6 h): 4.88 µM
